According to ChEMBL document CHEMBL1201862, “PubChem BioAssay data set” (2004):
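Method: 48-hour compound exposure of cells in 96-well plates, five concentrations, linear interpolation of endpoints. GI50 is the concentration that inhibits growth by half.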 Active and inactive are the calls of the source. No stated cut-off is given here; in the data, active = GI50 up to about 1.1 µM and inactive = higher.

Key:
Test in all cases: NCI anticancer screen, dose series, 48 h
MOLT-4 = tested on: MOLT-4
NCI-H226 = tested on: NCI-H226
SN12C = tested on: SN12C
SR = tested on: SR
SF-268 = tested on: SF-268
RXF 393 = tested on: RXF 393
NCI-H522 = tested on: NCI-H522
ACHN = tested on: ACHN
Malme-3M = tested on: Malme-3M
SK-MEL-2 = tested on: SK-MEL-2
PC-3 = tested on: PC-3
IGROV-1 = tested on: IGROV-1
CCRF-CEM = tested on: CCRF-CEM
NCI/ADR-RES = tested on: NCI/ADR-RES
HOP-92 = tested on: HOP-92
SNB-75 = tested on: SNB-75
DU-145 = tested on: DU-145
SK-OV-3 = tested on: SK-OV-3
MCF7 = tested on: MCF7
Hs-578T = tested on: Hs-578T

Measured: GI50

O=C(O)c1ccccc1C1c2ccccc2Oc2ccccc21
inactive: MOLT-4 38.9 µM | NCI-H226 16.4 µM | SN12C 46 µM | SR 41.9 µM | SF-268 28.8 µM | RXF 393 69.5 µM | NCI-H522 26.8 µM | ACHN 34.6 µM | Malme-3M 26.7 µM | SK-MEL-2 23.4 µM | PC-3 65.9 µM | IGROV-1 76 µM | CCRF-CEM > 100 µM | NCI/ADR-RES 59.7 µM | HOP-92 19.1 µM | SNB-75 22.6 µM | DU-145 46.7 µM

O/N=C1\C(=C\c2ccc3c(c2)OCCO3)CCCC1C(NO)c1ccc2c(c1)OCCO2 (stereo not given)
inactive: MOLT-4 10.1 µM | SN12C 14 µM | SR 14.3 µM | SF-268 18.2 µM | RXF 393 25.8 µM | NCI-H522 13.8 µM | ACHN 34.5 µM | Malme-3M 25.4 µM | IGROV-1 36.1 µM | SK-OV-3 49.9 µM | CCRF-CEM 16.6 µM | HOP-92 23.3 µM | SNB-75 28.7 µM

N#CC(C(=O)CCCC(=O)Nc1ccccc1[N+](=O)[O-])c1c(Cl)cccc1Cl (stereo not given)
inactive: MOLT-4 > 100 µM | NCI-H226 > 100 µM | SN12C > 100 µM | SR > 100 µM | SF-268 > 100 µM | RXF 393 > 100 µM | NCI-H522 > 100 µM | ACHN > 100 µM | Malme-3M > 100 µM | SK-MEL-2 > 100 µM | IGROV-1 > 100 µM | SK-OV-3 > 100 µM | CCRF-CEM > 100 µM | HOP-92 61.9 µM | SNB-75 > 100 µM

Cc1ccc(C)c(N2C(=O)C(=O)C(c3nc4ccccc4s3)/C(=N/N)C2=O)c1 (stereo not given)
inactive: MOLT-4 > 100 µM | NCI-H226 > 100 µM | SN12C > 100 µM | SR > 100 µM | SF-268 > 100 µM | RXF 393 > 100 µM | NCI-H522 > 100 µM | ACHN > 100 µM | Malme-3M > 100 µM | SK-MEL-2 > 100 µM | IGROV-1 > 100 µM | SK-OV-3 > 100 µM | CCRF-CEM > 100 µM | HOP-92 > 100 µM | SNB-75 > 100 µM

COC(=O)C12C3C=CC(O3)C1C1C=CC2O1 (stereo not given)
inactive: MOLT-4 > 100 µM | NCI-H226 > 100 µM | SN12C > 100 µM | SR > 100 µM | SF-268 > 100 µM | RXF 393 > 100 µM | NCI-H522 > 100 µM | ACHN > 100 µM | Malme-3M > 100 µM | SK-MEL-2 > 100 µM | IGROV-1 > 100 µM | SK-OV-3 > 100 µM | CCRF-CEM > 100 µM | HOP-92 > 100 µM

C[C@H]1[C@H](C)N(Cc2ccccc2)P(=O)(C(O)/C=C/c2ccccc2)N1Cc1ccccc1 (stereo not given in full)
inactive: MOLT-4 8.73 µM | MCF7 8.3 µM | NCI-H226 7.52 µM | SN12C 4.6 µM | SR 6.55 µM | SF-268 6.84 µM | RXF 393 6.24 µM | NCI-H522 5.83 µM | ACHN 8.47 µM | Malme-3M 5.58 µM | SK-MEL-2 4.7 µM | Hs-578T 4.79 µM | PC-3 5.37 µM | IGROV-1 8.32 µM | SK-OV-3 9.68 µM | NCI/ADR-RES 10.4 µM | HOP-92 7.18 µM | SNB-75 6.95 µM

CC(CC(=O)Nc1ccc(NC(=O)CC(C)/N=N\C(N)=S)cc1)/N=N\C(N)=S (stereo not given)
inactive: MOLT-4 > 100 µM | NCI-H226 > 100 µM | SN12C > 100 µM | SR 48.9 µM | SF-268 > 100 µM | RXF 393 > 100 µM | ACHN > 100 µM | Malme-3M > 100 µM | SK-MEL-2 > 100 µM | IGROV-1 > 100 µM | CCRF-CEM > 100 µM | HOP-92 > 100 µM | SNB-75 > 100 µM

CN1C2CCC1CC(CC(=O)NC(c1ccc(F)cc1)c1ccc(F)cc1)C2 (stereo not given)
inactive: MOLT-4 81.1 µM | NCI-H226 > 100 µM | SN12C > 100 µM | SR 30.2 µM | SF-268 98.4 µM | RXF 393 > 100 µM | NCI-H522 > 100 µM | ACHN > 100 µM | Malme-3M 27.5 µM | SK-MEL-2 22.5 µM | Hs-578T > 100 µM | PC-3 > 100 µM | IGROV-1 > 100 µM | SK-OV-3 > 100 µM | CCRF-CEM 2.2 µM | NCI/ADR-RES > 100 µM | HOP-92 60 µM | SNB-75 > 100 µM | DU-145 > 100 µM

Cc1c(OCCCOc2ccc3c(=O)cc(-c4ccccc4)oc3c2C)ccc2c(=O)cc(-c3ccccc3)oc12
inactive: MOLT-4 > 100 µM | SR 44.2 µM | SF-268 > 100 µM | RXF 393 74 µM | NCI-H522 > 100 µM | Malme-3M > 100 µM | SK-MEL-2 > 100 µM | IGROV-1 > 100 µM | SK-OV-3 > 100 µM | CCRF-CEM 68.7 µM | HOP-92 > 100 µM

Cc1ccccc1C(=O)c1cc(O)ccc1O
inactive: MOLT-4 > 100 µM | NCI-H226 > 100 µM | SN12C > 100 µM | SR 78 µM | SF-268 > 100 µM | RXF 393 > 100 µM | NCI-H522 27.2 µM | ACHN > 100 µM | Malme-3M > 100 µM | SK-MEL-2 34.6 µM | IGROV-1 99.5 µM | SK-OV-3 > 100 µM | CCRF-CEM > 100 µM | HOP-92 > 100 µM | SNB-75 76.2 µM

Cn1cc2ccccc2c1-c1nc(F)nc(F)n1
inactive: MOLT-4 55 µM | NCI-H226 > 100 µM | SN12C > 100 µM | SR 41.6 µM | SF-268 > 100 µM | RXF 393 > 100 µM | NCI-H522 > 100 µM | ACHN > 100 µM | Malme-3M > 100 µM | SK-MEL-2 > 100 µM | IGROV-1 > 100 µM | SK-OV-3 > 100 µM | CCRF-CEM 97.9 µM | HOP-92 > 100 µM | SNB-75 92.3 µM

Cn1c(=O)c2c(nc(NCCCCl)n2CC(=O)NCCCCl)n(C)c1=O
inactive: MOLT-4 > 100 µM | NCI-H226 > 100 µM | SN12C > 100 µM | SF-268 > 100 µM | RXF 393 > 100 µM | NCI-H522 > 100 µM | ACHN > 100 µM | SK-MEL-2 > 100 µM | Hs-578T > 100 µM | PC-3 > 100 µM | IGROV-1 > 100 µM | SK-OV-3 > 100 µM | CCRF-CEM > 100 µM | NCI/ADR-RES > 100 µM | HOP-92 > 100 µM | SNB-75 > 100 µM | DU-145 > 100 µM

COc1ccc2c3c([nH]c(=O)c2c1C(=O)O)-c1ccccc1CC3
inactive: MOLT-4 > 100 µM | NCI-H226 65.8 µM | SN12C > 100 µM | SR > 100 µM | SF-268 > 100 µM | RXF 393 > 100 µM | NCI-H522 > 100 µM | ACHN > 100 µM | Malme-3M > 100 µM | SK-MEL-2 > 100 µM | IGROV-1 > 100 µM | SK-OV-3 > 100 µM | CCRF-CEM > 100 µM | HOP-92 > 100 µM | SNB-75 > 100 µM

COC(=O)C1=C(C(=O)OC)C(OO)(c2ccccc2)OC1=O (stereo not given)
inactive: MOLT-4 > 100 µM | MCF7 52.1 µM | NCI-H226 > 100 µM | SN12C 86.3 µM | SR 38.5 µM | RXF 393 > 100 µM | NCI-H522 60.7 µM | ACHN > 100 µM | Malme-3M > 100 µM | SK-MEL-2 55.2 µM | PC-3 38.6 µM | IGROV-1 35 µM | SK-OV-3 > 100 µM | CCRF-CEM 55.6 µM | NCI/ADR-RES > 100 µM | HOP-92 > 100 µM | SNB-75 50.7 µM | DU-145 > 100 µM

O=Cc1[nH]c2ccccc2c1Br
inactive: MOLT-4 22.5 µM | NCI-H226 29.8 µM | SN12C 22.6 µM | SR 21.7 µM | SF-268 22.9 µM | RXF 393 25.4 µM | NCI-H522 56.8 µM | ACHN 26 µM | Malme-3M 18.5 µM | SK-MEL-2 15.2 µM | IGROV-1 26.7 µM | SK-OV-3 20.8 µM | CCRF-CEM 37.4 µM | HOP-92 26.8 µM | SNB-75 19.2 µM

CCc1cccc2c3c([nH]c12)-c1ccccc1NC(=O)C3
inactive: MOLT-4 8.89 µM | MCF7 18.3 µM | NCI-H226 14.1 µM | SN12C 95.5 µM | SF-268 48.2 µM | SK-MEL-2 > 100 µM | Hs-578T 30.7 µM | IGROV-1 > 100 µM | SK-OV-3 > 100 µM | CCRF-CEM > 100 µM | NCI/ADR-RES > 100 µM | HOP-92 > 100 µM | SNB-75 13.2 µM | DU-145 > 100 µM

C=CCOn1c(C=C)nc2c(C)cccc21
inactive: MOLT-4 3.64 µM | MCF7 2.92 µM | NCI-H226 5.47 µM | SN12C 3.63 µM | SR 2.46 µM | SF-268 3.89 µM | NCI-H522 2.29 µM | ACHN 2.62 µM | Malme-3M 11.6 µM | SK-MEL-2 2.21 µM | Hs-578T 4.98 µM | PC-3 3.08 µM | IGROV-1 7.35 µM | SK-OV-3 2.4 µM | CCRF-CEM 1.33 µM | NCI/ADR-RES 3.12 µM | HOP-92 8.32 µM | SNB-75 3.59 µM

Cc1ccc2c(O)cc(-c3ccc4ccccc4c3)nc2n1
inactive: MOLT-4 4.45 µM | MCF7 2.28 µM | NCI-H226 5.81 µM | SN12C 5.3 µM | SR 1.83 µM | SF-268 6.9 µM | NCI-H522 3.32 µM | ACHN 4.72 µM | Malme-3M 4.46 µM | SK-MEL-2 5.97 µM | Hs-578T 3.1 µM | IGROV-1 2.6 µM | SK-OV-3 3.37 µM | CCRF-CEM 3.66 µM | NCI/ADR-RES 4.58 µM | HOP-92 1.5 µM | SNB-75 2.75 µM | DU-145 15.5 µM
